Source: US12174198B2, “Methods of characterizing condensate-associated characteristics of compounds and uses thereof” (Dewpoint Therapeutics, Inc., priority 2019, dated 2024)

Columns and labels:
Assay type in all cases: physicochemical
FUS-SNAP condensates = molecular target: T1, FUS-SNAP condensates (Homo sapiens, UniProt P35637); assay: Fluorescence imaging of dye partitioning in FUS-SNAP condensates (I-in, I-out); conditions: for Ratio of intensity inside:outside FUS-SNAP Condensates Day 1 / Ratio of intensity inside:outside FUS-SNAP Condensates Day 2 / Ratio of intensity inside:outside FUS-SNAP Condensates Average: I-in:I-out; for Ratio of intensity inside:outside FUS-SNAP Condensates Day 1 / Ratio of intensity inside:outside FUS-SNAP Condensates Day 2 / Ratio of intensity inside:outside FUS-SNAP Condensates Average / Intensity Inside with Dye Average / Intensity Inside with Dye 1 / Intensity Inside with Dye 2 / Intensity Inside with Dye 3 / Intensity Outside with Dye Average / Intensity Outside with Dye 1 / Intensity Outside with Dye 2 / Intensity Outside with Dye 3: 10 μM dye; for Ratio of intensity inside:outside FUS-SNAP Condensates Average: average of two days; for Intensity Inside with Dye Average / Intensity Inside with Dye 1 / Intensity Inside with Dye 2 / Intensity Inside with Dye 3 / Intensity Inside Dye-No Dye: inside FUS-SNAP condensate; for Intensity Inside with Dye Average / Intensity Inside with Dye 1 / Intensity Inside with Dye 2 / Intensity Inside with Dye 3 / Intensity Outside with Dye Average / Intensity Outside with Dye 1 / Intensity Outside with Dye 2 / Intensity Outside with Dye 3: 5 μM protein; for Intensity Inside with Dye Average / Intensity Outside with Dye Average: average of three images; for Intensity Inside with Dye Average / Intensity Inside with Dye 1 / Intensity Inside with Dye 2 / Intensity Inside with Dye 3 / Intensity Inside Dye-No Dye / Intensity Outside with Dye Average / Intensity Outside with Dye 1 / Intensity Outside with Dye 2 / Intensity Outside with Dye 3 / Intensity Outside (Dye-No Dye): one day of experiments; for Intensity Inside with Dye 1 / Intensity Outside with Dye 1: image 1; for Intensity Inside with Dye 2 / Intensity Outside with Dye 2: image 2; for Intensity Inside with Dye 3 / Intensity Outside with Dye 3: image 3; for Intensity Inside Dye-No Dye / Intensity Outside (Dye-No Dye): background corrected; for Intensity Outside with Dye Average / Intensity Outside with Dye 1 / Intensity Outside with Dye 2 / Intensity Outside with Dye 3 / Intensity Outside (Dye-No Dye): outside FUS-SNAP condensate
T1 sequence (P35637 1-526): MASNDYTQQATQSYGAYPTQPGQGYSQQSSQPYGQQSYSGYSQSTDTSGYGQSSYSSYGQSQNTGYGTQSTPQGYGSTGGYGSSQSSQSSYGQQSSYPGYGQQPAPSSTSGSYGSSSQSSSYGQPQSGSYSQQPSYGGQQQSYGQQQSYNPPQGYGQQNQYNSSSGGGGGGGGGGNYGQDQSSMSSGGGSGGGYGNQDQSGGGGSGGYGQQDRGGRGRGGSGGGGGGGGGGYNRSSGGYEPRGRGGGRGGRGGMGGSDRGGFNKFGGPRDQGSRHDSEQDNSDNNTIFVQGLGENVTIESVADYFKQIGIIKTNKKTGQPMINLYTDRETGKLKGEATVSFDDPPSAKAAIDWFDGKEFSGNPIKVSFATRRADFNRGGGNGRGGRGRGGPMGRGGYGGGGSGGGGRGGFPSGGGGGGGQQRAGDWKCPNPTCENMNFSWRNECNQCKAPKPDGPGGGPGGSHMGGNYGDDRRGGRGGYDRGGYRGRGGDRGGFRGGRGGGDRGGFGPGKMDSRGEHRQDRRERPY
Description: (§1) All dye-stocks were stored as 1 mM solutions in 100% DMSO. The dyes were dissolved in dilution buffer (DB: 14.7 mM Tris, pH 7.25, 1 mM DTT) to yield 11.765 μM dye in 1.1765 DMSO. 17 μl of dye was distributed in a 384 well non-binding plate (Greiner).
(§2) Either SNAP-tagged FUS protein or tag-free PGL-3 protein was thawed at room temperature for at least 10 min, and the buffer was exchanged to partitioning buffer (PB: 50 mM Tris pH 7.25, 500 mM KCl, 5% Glycerol, and 1 mM DTT). The protein was then diluted to 33.3 μM in PB. 3 μl of protein solution were added to the 384 well plate to initiate phase separation, yielding 20 μl of 5 μM protein and 10 μM dye in 75 mM KCl, 0.75% Glycerol, 20 mM Tris, 1 mM DTT, and 1% DMSO or for no dye control reactions, 20 μl of 5 μM protein in 75 mM KCl, 0.75% Glycerol, 20 mM Tris, 1 mM DTT.
(§3) A spinning disk confocal microscope was used to acquire images of the samples. A 60×oil high-NA objective lens was used to capture the condensate droplets. The laser power was set to 20% and the exposure times were adjusted to the fluorescence emission intensity specific for each dye. Exposure times ranged from 1-1000 ms. Appropriate filter settings were used, matching the excitation and emission spectra of the respective dyes. Three images per well were taken. The background signal of protein droplets in the absence of dye was recorded for all applied imaging conditions.
(§4) Fluorescence intensity was measured inside one exemplary target condensate (Intensity inside, I-in) per image and in a region next to the exemplary target condensate (Intensity outside, I-out) by hand using the image analysis software Fiji. An example depicting the regions measured is shown FIG. 2A. Three I-in and three I-out values were measured in total for each dye in each experiment and were averaged. The measured I-in and I-out values for FUS-SNAP condensates on one day of experiments are shown in Table 2 and Table 3, respectively. The measured I-in and I-out values for PGL-3 condensates on one day of experiments are shown in Table 4 and Table 5, respectively. All values were background corrected, based on the background images (no dye controls) taken with the same microscope conditions.
(§5) The ratios of the average intensity measured in the target condensates and outside of the target condensates were calculated by dividing I-in by I-out, although dividing I-out by I-in could also have been used. The I-in:I-out ratios determined from the two different days of experiments were then averaged. The average I-in:I-out ratios for FUS-SNAP condensates are shown in FIG. 3 and the average I-in:I-out ratios for PGL-3 condensates are shown in FIG. 4. The standard deviation between the two experiments is represented by the error bars in FIG. 3 and FIG. 4.

PGL-3 condensates = molecular target: T2, PGL-3 condensates (Caenorhabditis elegans, UniProt G5EBV6); assay: Fluorescence imaging of dye partitioning in PGL-3 condensates (I-in, I-out); conditions: for Ratio of intensity inside:outside PGL-3 Condensates Day 1 / Ratio of intensity inside:outside PGL-3 Condensates Day 2 / Ratio of intensity inside:outside PGL-3 Condensates Average: I-in:I-out; for Ratio of intensity inside:outside PGL-3 Condensates Day 1 / Ratio of intensity inside:outside PGL-3 Condensates Day 2 / Ratio of intensity inside:outside PGL-3 Condensates Average / Intensity Inside with Dye Average / Intensity Inside with Dye 1 / Intensity Inside with Dye 2 / Intensity Inside with Dye 3 / Intensity Outside with Dye Average / Intensity Outside with Dye 1 / Intensity Outside with Dye 2 / Intensity Outside with Dye 3: 10 μM dye; for Ratio of intensity inside:outside PGL-3 Condensates Average: average of two days; for Intensity Inside with Dye Average / Intensity Inside with Dye 1 / Intensity Inside with Dye 2 / Intensity Inside with Dye 3 / Intensity Inside Dye-No Dye: inside PGL-3 condensate; for Intensity Inside with Dye Average / Intensity Inside with Dye 1 / Intensity Inside with Dye 2 / Intensity Inside with Dye 3 / Intensity Outside with Dye Average / Intensity Outside with Dye 1 / Intensity Outside with Dye 2 / Intensity Outside with Dye 3: 5 μM protein; for Intensity Inside with Dye Average / Intensity Outside with Dye Average: average of three images; for Intensity Inside with Dye Average / Intensity Inside with Dye 1 / Intensity Inside with Dye 2 / Intensity Inside with Dye 3 / Intensity Inside Dye-No Dye / Intensity Outside with Dye Average / Intensity Outside with Dye 1 / Intensity Outside with Dye 2 / Intensity Outside with Dye 3 / Intensity Outside (Dye-No Dye): one day of experiments; for Intensity Inside with Dye 1 / Intensity Outside with Dye 1: image 1; for Intensity Inside with Dye 2 / Intensity Outside with Dye 2: image 2; for Intensity Inside with Dye 3 / Intensity Outside with Dye 3: image 3; for Intensity Inside Dye-No Dye / Intensity Outside (Dye-No Dye): background corrected; for Intensity Outside with Dye Average / Intensity Outside with Dye 1 / Intensity Outside with Dye 2 / Intensity Outside with Dye 3 / Intensity Outside (Dye-No Dye): outside PGL-3 condensate
T2 sequence (G5EBV6 1-693): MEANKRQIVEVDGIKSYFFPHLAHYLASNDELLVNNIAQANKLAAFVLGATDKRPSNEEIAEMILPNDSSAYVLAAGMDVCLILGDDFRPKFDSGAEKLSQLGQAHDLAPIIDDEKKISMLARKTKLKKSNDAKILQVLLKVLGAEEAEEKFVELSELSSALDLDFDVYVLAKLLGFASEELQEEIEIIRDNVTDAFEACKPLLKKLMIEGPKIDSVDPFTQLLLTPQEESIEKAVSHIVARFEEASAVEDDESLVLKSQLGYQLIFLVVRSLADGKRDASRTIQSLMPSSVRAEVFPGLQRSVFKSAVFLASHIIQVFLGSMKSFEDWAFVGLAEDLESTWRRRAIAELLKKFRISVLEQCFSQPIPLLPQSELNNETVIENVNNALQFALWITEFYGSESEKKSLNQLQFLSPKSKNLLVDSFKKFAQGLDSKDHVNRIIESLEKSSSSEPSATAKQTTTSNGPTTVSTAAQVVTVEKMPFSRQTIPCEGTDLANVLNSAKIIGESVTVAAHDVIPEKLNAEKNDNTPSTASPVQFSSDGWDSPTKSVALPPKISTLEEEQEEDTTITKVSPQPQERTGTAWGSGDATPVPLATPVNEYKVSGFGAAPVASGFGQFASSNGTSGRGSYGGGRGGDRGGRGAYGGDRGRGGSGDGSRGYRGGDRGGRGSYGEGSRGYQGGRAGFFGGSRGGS
Description: as §1, §2, §3, §4, §5

[1] = system: FUS-SNAP condensates versus PGL-3 condensates; assay: Condensate preference: ratio of FUS-SNAP I-in:I-out to PGL-3 I-in:I-out; conditions: average FUS-SNAP I-in:I-out divided by average PGL-3 I-in:I-out
Description: as §5

Ratio of intensity inside:outside FUS-SNAP Condensates Day 1 (FUS-SNAP condensates)	Ratio of intensity inside:outside FUS-SNAP Condensates Day 2 (FUS-SNAP condensates)	Ratio of intensity inside:outside FUS-SNAP Condensates Average (FUS-SNAP condensates)	Intensity Inside with Dye Average (FUS-SNAP condensates)	Intensity Inside with Dye 1 (FUS-SNAP condensates)	Intensity Inside with Dye 2 (FUS-SNAP condensates)	Intensity Inside with Dye 3 (FUS-SNAP condensates)	Intensity Inside Dye-No Dye (FUS-SNAP condensates)	Intensity Outside with Dye Average (FUS-SNAP condensates)	Intensity Outside with Dye 1 (FUS-SNAP condensates)	Intensity Outside with Dye 2 (FUS-SNAP condensates)	Intensity Outside with Dye 3 (FUS-SNAP condensates)	Intensity Outside (Dye-No Dye) (FUS-SNAP condensates)	Ratio of intensity inside:outside PGL-3 Condensates Day 1 (PGL-3 condensates)	Ratio of intensity inside:outside PGL-3 Condensates Day 2 (PGL-3 condensates)	Ratio of intensity inside:outside PGL-3 Condensates Average (PGL-3 condensates)	Intensity Inside with Dye Average (PGL-3 condensates)	Intensity Inside with Dye 1 (PGL-3 condensates)	Intensity Inside with Dye 2 (PGL-3 condensates)	Intensity Inside with Dye 3 (PGL-3 condensates)	SMILES	also measured
4.6	3.3	4.0	622.4	638.5	599.9	628.8	502.4	228.6	233.9	233.3	218.7	108.6	1.9	3.3	2.6	212.6	211.3	211.0	215.7	N=C(N)c1ccc(-c2cc3ccc(C(=N)N)cc3[nH]2)cc1 [Dye 1, DAPI]	Intensity Inside Dye-No Dye (PGL-3 condensates): 91.9; Intensity Outside with Dye Average (PGL-3 condensates): 168.8; Intensity Outside with Dye 1 (PGL-3 condensates): 173.1; Intensity Outside with Dye 2 (PGL-3 condensates): 168.4; Intensity Outside with Dye 3 (PGL-3 condensates): 164.9; Intensity Outside (Dye-No Dye) (PGL-3 condensates): 48.4; Ratio of FUS-SNAP:PGL-3 [1]: 1.5
1.4	1.2	1.3	280.9	278.2	278.1	286.5	160.9	232.0	235.7	228.5	232.0	112.0	1.0	1.1	1.1	269.8	273.9	267.0	268.3	O=c1cc(C(F)(F)F)c2ccc(O)cc2o1 [Dye 2, 7-Hydroxy-4-(trifluoromethyl)-coumarin]	Intensity Inside Dye-No Dye (PGL-3 condensates): 149.0; Intensity Outside with Dye Average (PGL-3 condensates): 262.4; Intensity Outside with Dye 1 (PGL-3 condensates): 263.1; Intensity Outside with Dye 2 (PGL-3 condensates): 258.0; Intensity Outside with Dye 3 (PGL-3 condensates): 266.0; Intensity Outside (Dye-No Dye) (PGL-3 condensates): 141.9; Ratio of FUS-SNAP:PGL-3 [1]: 1.2
2.5	2.8	2.7	3572.7	3451.6	3462.2	3804.4	3452.8	1498.4	1486.5	1529.0	1479.6	1378.3	1.5	1.1	1.3	2098.0	2228.4	2006.3	2059.4	O=C(O)c1cc2cc3c4c(c2oc1=O)CCCN4CCC3 [Dye 3, Coumarin 343]	Intensity Inside Dye-No Dye (PGL-3 condensates): 1977.3; Intensity Outside with Dye Average (PGL-3 condensates): 1447.1; Intensity Outside with Dye 1 (PGL-3 condensates): 1472.5; Intensity Outside with Dye 2 (PGL-3 condensates): 1407.6; Intensity Outside with Dye 3 (PGL-3 condensates): 1461.1; Intensity Outside (Dye-No Dye) (PGL-3 condensates): 1326.6; Ratio of FUS-SNAP:PGL-3 [1]: 2.0
2.1	3.0	2.6	10851.1	10755.9	10738.6	11058.9	10353.6	5030.3	4894.0	5118.6	5078.2	4890.2	1.4	1.3	1.3	204.8	212.2	205.0	197.2	CC(=O)c1cc2cc3c4c(c2oc1=O)CCCN4CCC3 [Dye 4, Coumarin 334]	Intensity Inside Dye-No Dye (PGL-3 condensates): 84.0; Intensity Outside with Dye Average (PGL-3 condensates): 179.0; Intensity Outside with Dye 1 (PGL-3 condensates): 178.0; Intensity Outside with Dye 2 (PGL-3 condensates): 179.6; Intensity Outside with Dye 3 (PGL-3 condensates): 179.5; Intensity Outside (Dye-No Dye) (PGL-3 condensates): 58.6; Ratio of FUS-SNAP:PGL-3 [1]: 1.9
